The source of these data is PMC8658806, “New Carbonic Anhydrase-II Inhibitors from Marine Macro Brown Alga Dictyopteris hoytii Supported by In Silico Studies” (Molecules, 2021).

Like-named read-outs stand apart in the source and are kept apart here.

This assay deals with T1, purified bovine erythrocyte CA-II (Bos taurus, UniProt P00921).
T1 construct: purified bovine erythrocyte CA-II; from tissue; host or cells: bovine erythrocytes
In words: Carbonic anhydrase II inhibition (4-nitrophenyl acetate hydrolysis, microplate). As to conditions: for % Inhibition: preliminary screening, test concentration not given. It counts as biochemical. Here is the method: The total reaction volume of 200 µL including 20 µL of test compounds, isolated from Dictyopteris hoytii, and prepared in DMSO, followed by the addition of 140 µL of HEPES–tris buffer, 20 µL of purified bovine erythrocyte CA-II (0.1 mg/mL) prepared in buffer, and 20 µL of a solution of 4-nitrophenyl acetate. Then, 20 µL of the test compound was incubated with the enzyme carbonic anhydrase (EC 4.2.1.1) for 15 min in 96-well flat bottom plates. The rate of product formation was monitored with the addition of 20 µL of 4-NPA as substrate, prepared in methanol at the final concentration of 0.7 mM, at 25 °C for 30 min with regular intervals of 1 min, by using microplate readers (Bio-Rad, Molecular Devices, CA, USA). HEPES-tris was used as a buffer for the reaction at a final concentration of 20 mM at pH 7.4.

[1] abbreviates: Table 1 and text, unit given, NA = not active, read-out: IC50 ± SEM.

T1 sequence (P00921 whole entry): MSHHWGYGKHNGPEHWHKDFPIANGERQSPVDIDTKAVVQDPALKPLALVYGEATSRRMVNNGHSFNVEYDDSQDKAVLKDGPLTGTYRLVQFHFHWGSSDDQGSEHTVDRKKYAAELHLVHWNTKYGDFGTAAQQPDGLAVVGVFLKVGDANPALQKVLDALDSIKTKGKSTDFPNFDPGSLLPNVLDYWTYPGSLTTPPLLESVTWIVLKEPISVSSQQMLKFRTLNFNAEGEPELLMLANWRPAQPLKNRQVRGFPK

The IC50 is the concentration that inhibits the measured activity by half. As a reminder, the % Inhibition is the change of the read-out against control, counted positive when it falls. A higher % Inhibition goes with a strong effect. On to `O=Cc1ccccc1/C=C/C(=O)O` [Compound 1, (E)-3-(2-formylphenyl)acrylic acid], for which the “% Inhibition” value stood at 79.4%. For the same compound, the IC50 under setting [1] was found to be 44.9 ± 1.1 µM.
The corresponding values for `COC(OC)c1ccc(/C=C/C(=O)O)cc1` [Compound 5, (E)-3-(4-(dimethoxymethyl)phenyl)acrylic acid] are 93.9% and 17.7 ± 2.01 µM.
The matching figures for `C=CCCCCCCCCCCCCCCCC` [Compound 7, octadec-1-ene]: 88.0% and 16.3 ± 0.31 µM.
The matching figures for `O=Cc1ccc(C=O)cc1` [Compound 9, terephthalaldehyde]: 93.9% and 53.1 ± 1.2 µM.
As for `C/C=C(\CC[C@@H](C)[C@H]1CC[C@H]2[C@@H]3CC=C4C[C@@H](O)CC[C@]4(C)[C@H]3CC[C@]12C)C(C)C` [Compound 15, fucosterol], the IC50 turned out to be 31.3 ± 1.34 µM and the “% Inhibition” value came out at 69.8%.
Turning to `CCCCCCCCCCCCCCCCCCC=CCCCCCCCC(=O)O` [Compound 19, n-octacos-9-enoic acid], the “% Inhibition” value was 87.3%. Under setting [1], the IC50 amounted to 24.3 ± 1.38 µM.
Regarding “ethyl methyl 2-bromobenzene 1,4-dioate [Compound 13]”, the “% Inhibition” value came to 87.3%. Besides, the IC50 under setting [1] turned out to be 39.5 ± 0.73 µM. In addition, the IC50 (Table 2 repeat of Table 1 values, read-out: IC50 ± S.E.M) stood at 39.5 ± 0.73 µM.
